The experiment concerns the target T1, recombinant METTL3/METTL14 complex (Homo sapiens, UniProt Q86U44).
T1 construct: purchased Active Motif 311970; host or cells: Sf9 cells
Kind of experiment: METTL3/14 Scintillation Proximity Assay (SPA), RNA methyltransferase activity. Format: biochemical. Conditions: 5.31 nM METTL3/14 complex, 250 nM RNA substrate, 1 μM 3H-SAM, 90 min; for compounds marked * best of the two separated forms. Background: SPA uses beads or plates that emit light when radiolabelled molecules are held near them.

T1 sequence (Q86U44 whole entry): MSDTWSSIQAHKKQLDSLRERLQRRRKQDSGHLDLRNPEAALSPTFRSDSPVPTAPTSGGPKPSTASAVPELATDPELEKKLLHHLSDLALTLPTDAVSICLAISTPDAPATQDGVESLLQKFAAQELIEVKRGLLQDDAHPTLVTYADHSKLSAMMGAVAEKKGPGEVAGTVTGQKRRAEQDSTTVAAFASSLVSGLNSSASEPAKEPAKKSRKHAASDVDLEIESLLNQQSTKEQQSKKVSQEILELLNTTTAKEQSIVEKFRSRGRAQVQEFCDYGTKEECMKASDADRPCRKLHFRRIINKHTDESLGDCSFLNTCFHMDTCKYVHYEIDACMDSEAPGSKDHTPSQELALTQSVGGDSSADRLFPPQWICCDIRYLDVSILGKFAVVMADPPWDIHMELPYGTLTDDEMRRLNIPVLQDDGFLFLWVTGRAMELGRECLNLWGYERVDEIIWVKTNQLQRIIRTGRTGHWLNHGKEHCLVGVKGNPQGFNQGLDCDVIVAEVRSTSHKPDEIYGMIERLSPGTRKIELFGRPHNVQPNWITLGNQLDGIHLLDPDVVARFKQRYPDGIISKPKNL
T1 sequence (Q9HCE5 whole entry partner): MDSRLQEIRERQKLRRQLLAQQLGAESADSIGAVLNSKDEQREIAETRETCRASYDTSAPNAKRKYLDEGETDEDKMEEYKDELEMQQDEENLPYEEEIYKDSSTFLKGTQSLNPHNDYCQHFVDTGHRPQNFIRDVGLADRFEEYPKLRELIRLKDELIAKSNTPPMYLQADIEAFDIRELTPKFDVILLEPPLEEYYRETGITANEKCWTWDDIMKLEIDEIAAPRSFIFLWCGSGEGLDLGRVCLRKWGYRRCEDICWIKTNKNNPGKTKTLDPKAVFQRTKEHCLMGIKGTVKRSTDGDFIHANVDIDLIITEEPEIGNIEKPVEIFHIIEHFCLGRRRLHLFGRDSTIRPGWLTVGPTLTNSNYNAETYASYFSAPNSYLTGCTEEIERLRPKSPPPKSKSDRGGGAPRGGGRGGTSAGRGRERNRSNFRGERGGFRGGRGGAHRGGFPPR

Regarding `CC(C(=O)Nc1cncc(N(C)C)c1)c1ccc(N2CCC[C@@H](NCC3CCC3)C2)nn1` (stereo partly drawn) [Compound 157, 2-(6-((R)-3-((cyclobutylmethyl)amino)piperidin-1-yl)pyridazin-3-yl)-N-(5-(dimethylamino)pyridin-3-yl)propanamide], the IC50 – broadly, the concentration that inhibits the measured activity by half – lay within 0.05 to 0.5 µM.
The figure for `COc1ccc(C(=O)NC(C)c2ccc(N3CCC[C@@H](NCC4CCC4)C3)nn2)c2cn[nH]c12` (mixture of isomers) [Compound 092, N-(1-(6-((R)-3-((cyclobutylmethyl)amino)piperidin-1-yl)pyridazin-3-yl)ethyl)-7-methoxy-1H-indazole-4-carboxamide] is at most 0.05 µM.
Take `CC(n1cc(-c2cncc3[nH]ncc23)nn1)n1ccc(N2CCC[C@@H](NCC3CCC3)C2)cc1=O` (some centres unmarked) [Compound 147]: the IC50 is at most 0.05 µM.
`CC(c1ccc(N2CCC[C@@H](NCC3CCC3)C2)nn1)n1cc(-c2cc(=O)n3ccccc3n2)nn1` (stereo partly drawn) [Compound 089, 2-(1-(1-(6-((R)-3-((cyclobutylmethyl)amino)piperidin-1-yl)pyridazin-3-yl)ethyl)-1H-1,2,3-triazol-4-yl)-4H-pyrido[1,2-a]pyrimidin-4-one]: the IC50 is at most 0.05 µM.
`COc1cnnc(-c2cn(C(C)c3ccc(N4CCC[C@@H](NCC5CCC5)C4)nn3)nn2)c1` (single isomer, unassigned) [Compound 137]: the IC50 is 0.05 to 0.5 µM.
Consider `COc1cncc(-c2cn(C3(c4ccc(N5CCC[C@@H](NCC6CCC6)C5)nn4)CC3)nn2)c1` [Compound 115, (R)-N-(cyclobutylmethyl)-1-(6-(1-(4-(5-methoxypyridin-3-yl)-1H-1,2,3-triazol-1-yl)cyclopropyl)pyridazin-3-yl)piperidin-3-amine], for which the 50% inhibitory concentration (IC50) is at most 0.05 µM.
`CC(n1cc(-c2cncc(-n3cccn3)c2)nn1)n1ccc(N2CCC[C@@H](NCC3CCC3)C2)cc1=O` (mixture of isomers) [Compound 146, 1-(1-(4-(5-(1H-pyrazol-1-yl)pyridin-3-yl)-1H-1,2,3-triazol-1-yl)ethyl)-4-((R)-3-((cyclobutylmethyl)amino)piperidin-1-yl)pyridin-2(1H)-one]: the IC50 is at most 0.05 µM.
On to `CC(C(=O)Nc1cncc(N2CCCC2)n1)c1ccc(N2CCC[C@@H](NCC3CCC3)C2)cc1` (single isomer, unassigned) [Compound 294], for which the concentration for half-maximal inhibition (IC50) is at most 0.05 µM.
In the case of `CC(n1cc(-c2cncc(F)c2)nn1)n1ccc(N2CCC[C@@H](NCC3CCC3)C2)cc1=O` (stereo partly drawn) [Compound 094, 4-((R)-3-((cyclobutylmethyl)amino)piperidin-1-yl)-1-(1-(4-(5-fluoropyridin-3-yl)-1H-1,2,3-triazol-1-yl)ethyl)pyridin-2(1H)-one], the concentration for half-maximal inhibition (IC50) is at most 0.05 µM.
As to `CC(c1ccc(N2CCC[C@@H](NCC3CCC3)C2)nn1)n1cc(-c2cncc(N(C)C)c2)nn1` (mixture of isomers) [Compound 133, 5-(1-(1-(6-((R)-3-((cyclobutylmethyl)amino)piperidin-1-yl)pyridazin-3-yl)ethyl)-1H-1,2,3-triazol-4-yl)-N,N-dimethylpyridin-3-amine], the concentration for half-maximal inhibition (IC50) was at most 0.05 µM.
Take `COc1cncc(-c2cn(Cc3ccc(N4C[C@H](NCC5CCC5)CC[C@@H]4C)nn3)nn2)c1` [Compound 038, (3R,6S)-N-(cyclobutylmethyl)-1-(6-((4-(5-methoxypyridin-3-yl)-1H-1,2,3-triazol-1-yl)methyl)pyridazin-3-yl)-6-methylpiperidin-3-amine]: the concentration for half-maximal inhibition (IC50) fell in the range of 0.05 to 0.5 µM.
With `CNc1cncc(-c2cn(C(C)n3ccc(N4CCC[C@@H](NCC5CCC5)C4)cc3=O)nn2)c1` (mixture of isomers) [Compound 096, 4-((R)-3-((cyclobutylmethyl)amino)piperidin-1-yl)-1-(1-(4-(5-(methylamino)pyridin-3-yl)-1H-1,2,3-triazol-1-yl)ethyl)pyridin-2(1H)-one], the IC50 was at most 0.05 µM.
On to `C=C(c1ccc(N2CCC[C@@H](NCC3CCC3)C2)cc1)n1cc(-c2cncc(N(C)C)c2)nn1` [Compound 155, (R)-5-(1-(1-(4-(3-((cyclobutylmethyl)amino)piperidin-1-yl)phenyl)vinyl)-1H-1,2,3-triazol-4-yl)-N,N-dimethylpyridin-3-amine], for which the IC50 was at most 0.05 µM.
On to `O=c1[nH]c(-c2cn(Cc3ccc(N4CCC[C@@H](NCC5CCC5)C4)nn3)nn2)nc2ccccc12` [Compound 029, (R)-2-(1-((6-(3-((cyclobutylmethyl)amino)piperidin-1-yl)pyridazin-3-yl)methyl)-1H-1,2,3-triazol-4-yl)quinazolin-4(3H)-one], for which the IC50 is 0.05 to 0.5 µM.
`O=C(Cc1ccc(N2CCC[C@@H](NCC3CCC3)C2)cn1)Nc1cncc(N2CCCC2)n1` [Compound 277, (R)-2-(5-(3-((cyclobutylmethyl)amino)piperidin-1-yl)pyridin-2-yl)-N-(6-(pyrrolidin-1-yl)pyrazin-2-yl)acetamide]: the IC50 was at most 0.05 µM.
As to `COc1cncc(-c2cn(Cc3ccc(N4CCCC(C)(NCC5CCC5)C4)nn3)nn2)c1` (centres unmarked) [Compound 053, N-(cyclobutylmethyl)-1-(6-((4-(5-methoxypyridin-3-yl)-1H-1,2,3-triazol-1-yl)methyl)pyridazin-3-yl)-3-methylpiperidin-3-amine], the half-inhibitory concentration (IC50) lay within 0.05 to 0.5 µM.
As to `COc1cncc(-c2cn(C(C)c3ccc(N4CCC[C@@H](NCC5CC5)C4)cn3)nn2)n1` (stereo partly drawn) [Compound 261, (3R)—N-(cyclopropylmethyl)-1-(6-(1-(4-(6-methoxypyrazin-2-yl)-1H-1,2,3-triazol-1-yl)ethyl)pyridin-3-yl)piperidin-3-amine], the IC50 is at most 0.05 µM.
For `CC1CCCN1c1cncc(-c2cn(C(C)n3ccc(N4CCC[C@@H](NCC5CCC5)C4)cc3=O)nn2)c1` (mixture of isomers) [Compound 172], the IC50 lay within 0.05 to 0.5 µM.
For `C[C@H](NC(=O)c1cc(=O)n2ccccc2n1)c1ccc(N2CCC[C@@H](NCC3CCC3)C2)cc1` [Compound 074, N-((S)-1-(4-((R)-3-((cyclobutylmethyl)amino)piperidin-1-yl)phenyl)ethyl)-4-oxo-4H-pyrido[1,2-a]pyrimidine-2-carboxamide] the value was at most 0.05 µM.
For `CC(NC(=O)c1cc(=O)n2ccccc2n1)c1ccc(N2CCC[C@@H](NCC3CCC3)C2)nc1` (stereo partly drawn) [Compound 072, N-(1-(6-((R)-3-((cyclobutylmethyl)amino)piperidin-1-yl)pyridin-3-yl)ethyl)-4-oxo-4H-pyrido[1,2-a]pyrimidine-2-carboxamide] the value was 0.05 to 0.5 µM; for `O=C(NCc1ccc(N2CCC[C@@H](NCC3CCC3)C2)nc1)c1cc(=O)n2ccccc2n1` [Compound 061, (R)-N-((6-(3-((cyclobutylmethyl)amino)piperidin-1-yl)pyridin-3-yl)methyl)-4-oxo-4H-pyrido[1,2-a]pyrimidine-2-carboxamide], at most 0.05 µM; for `COc1cncc(-c2cc(C(C)n3ccc(N4CCC[C@@H](NCC5CCC5)C4)cc3=O)on2)c1` (mixture of isomers) [Compound 130, 4-((R)-3-((cyclobutylmethyl)amino)piperidin-1-yl)-1-(1-(3-(5-methoxypyridin-3-yl)isoxazol-5-yl)ethyl)pyridin-2(1H)-one], at most 0.05 µM.
As for `CC(n1cnc(-c2cc(=O)n3ccccc3n2)c1)n1ccc(N2CCC[C@@H](NCC3CCC3)C2)cc1=O` (single isomer, unassigned) [Compound 170], the 50% inhibitory concentration (IC50) is at most 0.05 µM.
On to `CC(C(=O)Nc1cncc(N2CCCC2)n1)c1ccc(N2CCC[C@@H](NCC3CCC3)C2)cn1` (stereo partly drawn) [Compound 274, 2-(5-((R)-3-((cyclobutylmethyl)amino)piperidin-1-yl)pyridin-2-yl)-N-(6-(pyrrolidin-1-yl)pyrazin-2-yl)propanamide], for which the half-inhibitory concentration (IC50) was at most 0.05 µM.
On to `COc1cncc(-c2nnc(Cc3ccc(N4CCC[C@@H](NCC5CCC5)C4)nn3)[nH]2)c1` [Compound 069, (R)-N-(cyclobutylmethyl)-1-(6-((5-(5-methoxypyridin-3-yl)-4H-1,2,4-triazol-3-yl)methyl)pyridazin-3-yl)piperidin-3-amine], for which the concentration for half-maximal inhibition (IC50) was at most 0.05 µM.
With `Cc1cncc(-c2cn(C(C)n3ccc(N4CCC[C@@H](NCC5CC5)C4)cc3=O)nn2)n1` (single isomer, unassigned) [Compound 255], the concentration for half-maximal inhibition (IC50) is 0.05 to 0.5 µM.
Consider `CC(n1cc(-c2cncc(Cl)c2)nn1)n1ccc(N2CCC[C@@H](NCC3CCC3)C2)cc1=O` (mixture of isomers) [Compound 078, 1-(1-(4-(5-chloropyridin-3-yl)-1H-1,2,3-triazol-1-yl)ethyl)-4-((R)-3-((cyclobutylmethyl)amino)piperidin-1-yl)pyridin-2(1H)-one], for which the IC50 is at most 0.05 µM.
In the case of `CC(C(=O)Nc1cncc(N(C)C)c1)n1ccc(N2CCC[C@@H](NCC3CCC3)C2)cc1=O` (mixture of isomers) [Compound 162, 2-(4-((R)-3-((cyclobutylmethyl)amino)piperidin-1-yl)-2-oxopyridin-1(2H)-yl)-N-(5-(dimethylamino)pyridin-3-yl)propanamide], the 50% inhibitory concentration (IC50) was in the range of 0.05 to 0.5 µM.
The figure for `COc1cc(-c2cn(Cn3cc(F)c(N4CCCC(NCC5CCC5)C4)cc3=O)nn2)c2cn[nH]c2c1` (centres unmarked) [Compound 054, 4-(3-((cyclobutylmethyl)amino)piperidin-1-yl)-5-fluoro-1-((4-(6-methoxy-1H-indazol-4-yl)-1H-1,2,3-triazol-1-yl)methyl)pyridin-2(1H)-one] is 0.5 to 3.5 µM; for `COc1cc(NC(=O)C2(c3ccc(N4CCC[C@@H](NCC5CCC5)C4)cn3)COC2)c2cn[nH]c2c1` [Compound 273, (R)-3-(5-(3-((cyclobutylmethyl)amino)piperidin-1-yl)pyridin-2-yl)-N-(6-methoxy-1H-indazol-4-yl)oxetane-3-carboxamide] it is at most 0.05 µM.
With `CNc1cnnc(-c2cn(C(C)n3ccc(N4CCC[C@@H](NCC5CCC5)C4)cc3=O)nn2)c1` (mixture of isomers) [Compound 122, 4-((R)-3-((cyclobutylmethyl)amino)piperidin-1-yl)-1-(1-(4-(5-(methylamino)pyridazin-3-yl)-1H-1,2,3-triazol-1-yl)ethyl)pyridin-2(1H)-one], the IC50 is at most 0.05 µM.
Consider `COc1cncc(C(=O)NCc2ccc(N3CCC[C@@H](NCC4CCC4)C3)nn2)c1` [Compound 004, (R)-N-((6-(3-((cyclobutylmethyl)amino)piperidin-1-yl)pyridazin-3-yl)methyl)-5-methoxynicotinamide], for which the IC50 lay in the range of 0.5 to 3.5 µM.

The record behind these values is patent US20250002475A1 (EPICS THERAPEUTICS, priority 2023, published 2025).
